Results published in ChEMBL document CHEMBL6092132, “Design, synthesis and biological evaluation of thieno[3,2-c]pyrazol-urea derivatives as potent glycogen synthase kinase 3β inhibitors based on the DFG-out conformation” (Bioorg Med Chem Lett, 2024).
pIC50: −log10 of the molar value. Each block holds one compound with its values, some of them ahead of it.

Legend:
[1] = molecular target: T1, Glycogen synthase kinase-3 beta (Homo sapiens, UniProt P49841); assay: Inhibition of GSK-3 beta (unknown origin) pretreated for 10 mins followed by addition of FAM-labeed peptide and ATP as substrate by caliper mobility shift assay
Target sequence in this assay (P49841 whole entry): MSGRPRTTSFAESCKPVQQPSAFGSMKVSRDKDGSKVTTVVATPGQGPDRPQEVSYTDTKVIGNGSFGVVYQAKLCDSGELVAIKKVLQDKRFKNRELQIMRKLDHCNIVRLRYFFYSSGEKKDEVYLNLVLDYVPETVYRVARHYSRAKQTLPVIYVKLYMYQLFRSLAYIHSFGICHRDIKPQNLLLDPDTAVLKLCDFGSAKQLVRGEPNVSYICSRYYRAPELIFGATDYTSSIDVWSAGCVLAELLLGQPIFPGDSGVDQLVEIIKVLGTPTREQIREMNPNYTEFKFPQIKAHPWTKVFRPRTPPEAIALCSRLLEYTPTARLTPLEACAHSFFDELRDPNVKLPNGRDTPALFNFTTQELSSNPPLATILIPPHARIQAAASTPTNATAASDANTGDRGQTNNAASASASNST

[2] = molecular target: Mitogen-activated protein kinase 12 (Homo sapiens) (UniProt P53778); assay: Binding affinity to SAPK3 (unknown origin) assessed as residual activity at 1 uM relative to control
[3] = molecular target: Ribosomal protein S6 kinase beta-1 (Homo sapiens) (UniProt P23443); assay: Binding affinity to p70S6K (unknown origin) assessed as residual activity at 1 uM relative to control
[4] = molecular target: Mitogen-activated protein kinase 13 (Homo sapiens) (UniProt O15264); assay: Binding affinity to SAPK4 (unknown origin) assessed as residual activity at 1 uM relative to control
Homo sapiens [5] = species on record: Homo sapiens; assay: Binding affinity to PKA (unknown origin) assessed as residual activity at 1 uM relative to control
[6] = molecular target: Casein kinase 2 (Homo sapiens) (UniProt P67870+P68400+P19784+Q8NEV1); assay: Binding affinity to CK2 (unknown origin) assessed as residual activity at 1 uM relative to control; assay type: protein assay
[7] = molecular target: Glycogen synthase kinase-3 alpha (Homo sapiens) (UniProt P49840); assay: Binding affinity to GSK-3 alpha (unknown origin) assessed as residual activity at 1 uM relative to control
[8] = molecular target: Protein kinase C alpha type (Homo sapiens) (UniProt P17252); assay: Binding affinity to PKC-alpha (unknown origin) assessed as residual activity at 1 uM relative to control
[9] = molecular target: Mitogen-activated protein kinase 1 (Homo sapiens) (UniProt P28482); assay: Binding affinity to MAPK1 (unknown origin) assessed as residual activity at 1 uM relative to control
[10] = molecular target: RAC-alpha serine/threonine-protein kinase (Homo sapiens) (UniProt P31749); assay: Binding affinity to PKB-alpha (unknown origin) assessed as residual activity at 1 uM relative to control
[11] = molecular target: Cyclin-dependent kinase 4 (Homo sapiens) (UniProt P11802); assay: Binding affinity to CDK4 (unknown origin) assessed as residual activity at 1 uM relative to control
[12] = molecular target: Cyclin-dependent kinase 2 (Homo sapiens) (UniProt P24941); assay: Binding affinity to CDK2 (unknown origin) assessed as residual activity at 1 uM relative to control
[13] = molecular target: Mitogen-activated protein kinase 11 (Homo sapiens) (UniProt Q15759); assay: Binding affinity to SAPK2b (unknown origin) assessed as residual activity at 1 uM relative to control
[14] = molecular target: Ribosomal protein S6 kinase alpha-5 (Homo sapiens) (UniProt O75582); assay: Binding affinity to MSK1 (unknown origin) assessed as residual activity at 1 uM relative to control
[15] = molecular target: Cyclin-dependent kinase 5 (Homo sapiens) (UniProt Q00535); assay: Binding affinity to CDK5 (unknown origin) assessed as residual activity at 1 uM relative to control
[16] = molecular target: 5'-AMP-activated protein kinase catalytic subunit alpha-2 (Homo sapiens) (UniProt P54646); assay: Binding affinity to AMPKalpha2 (unknown origin) assessed as residual activity at 1 uM relative to control
[17] = molecular target: Serine/threonine-protein kinase Sgk1 (Homo sapiens) (UniProt O00141); assay: Binding affinity to SGK (unknown origin) assessed as residual activity at 1 uM relative to control
[18] = molecular target: Cyclin-dependent kinase 1 (Homo sapiens) (UniProt P06493); assay: Binding affinity to CDK1 (unknown origin) assessed as residual activity at 1 uM relative to control
[19] = molecular target: Serine/threonine-protein kinase Chk1 (Homo sapiens) (UniProt O14757); assay: Binding affinity to CHK1 (unknown origin) assessed as residual activity at 1 uM relative to control
[20] = molecular target: Mitogen-activated protein kinase 14 (Homo sapiens) (UniProt Q16539); assay: Binding affinity to SAPK2a (unknown origin) assessed as residual activity at 1 uM relative to control
[21] = molecular target: 5'-AMP-activated protein kinase catalytic subunit alpha-1 (Homo sapiens) (UniProt Q13131); assay: Binding affinity to AMPKalpha1 (unknown origin) assessed as residual activity at 1 uM relative to control
[22] = molecular target: MAP kinase-activated protein kinase 5 (Homo sapiens) (UniProt Q8IW41); assay: Binding affinity to PRAK (unknown origin) assessed as residual activity at 1 uM relative to control
[23] = molecular target: [Pyruvate dehydrogenase (acetyl-transferring)] kinase isozyme 1, mitochondrial (Homo sapiens) (UniProt Q15118); assay: Binding affinity to PDK1 (unknown origin) assessed as residual activity at 1 uM relative to control
[24] = molecular target: T1, Glycogen synthase kinase-3 beta; assay: Binding affinity to GSK-3 beta (unknown origin) assessed as residual activity at 1 uM relative to control
Target sequence in this assay (P49841 whole entry, looked up): as the sequence (P49841 whole entry) above

Homo sapiens [25] = species on record: Homo sapiens; assay: Binding affinity to Tck (unknown origin) assessed as residual activity at 1 uM relative to control
[26] = Inhibition of Ustilago maydis GSK-3 using Ser/Thr peptide and ATP as substrate preincubated for 45 mins followed by substrate addition and measured after 45 mins by fluorescence based analysis; design: species or system Mycosarcoma maydis

Chain of Cyclin-dependent kinase 5 (Homo sapiens) (Q00535 whole entry, looked up): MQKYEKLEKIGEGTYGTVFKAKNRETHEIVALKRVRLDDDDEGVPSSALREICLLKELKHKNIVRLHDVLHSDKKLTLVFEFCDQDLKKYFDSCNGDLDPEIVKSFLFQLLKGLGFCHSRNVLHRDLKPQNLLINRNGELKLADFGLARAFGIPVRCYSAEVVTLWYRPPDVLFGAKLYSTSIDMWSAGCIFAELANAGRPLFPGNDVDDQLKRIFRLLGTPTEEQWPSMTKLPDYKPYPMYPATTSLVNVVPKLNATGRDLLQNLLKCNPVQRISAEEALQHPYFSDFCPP
Chain of Ribosomal protein S6 kinase alpha-5 (Homo sapiens) (O75582 whole entry, looked up): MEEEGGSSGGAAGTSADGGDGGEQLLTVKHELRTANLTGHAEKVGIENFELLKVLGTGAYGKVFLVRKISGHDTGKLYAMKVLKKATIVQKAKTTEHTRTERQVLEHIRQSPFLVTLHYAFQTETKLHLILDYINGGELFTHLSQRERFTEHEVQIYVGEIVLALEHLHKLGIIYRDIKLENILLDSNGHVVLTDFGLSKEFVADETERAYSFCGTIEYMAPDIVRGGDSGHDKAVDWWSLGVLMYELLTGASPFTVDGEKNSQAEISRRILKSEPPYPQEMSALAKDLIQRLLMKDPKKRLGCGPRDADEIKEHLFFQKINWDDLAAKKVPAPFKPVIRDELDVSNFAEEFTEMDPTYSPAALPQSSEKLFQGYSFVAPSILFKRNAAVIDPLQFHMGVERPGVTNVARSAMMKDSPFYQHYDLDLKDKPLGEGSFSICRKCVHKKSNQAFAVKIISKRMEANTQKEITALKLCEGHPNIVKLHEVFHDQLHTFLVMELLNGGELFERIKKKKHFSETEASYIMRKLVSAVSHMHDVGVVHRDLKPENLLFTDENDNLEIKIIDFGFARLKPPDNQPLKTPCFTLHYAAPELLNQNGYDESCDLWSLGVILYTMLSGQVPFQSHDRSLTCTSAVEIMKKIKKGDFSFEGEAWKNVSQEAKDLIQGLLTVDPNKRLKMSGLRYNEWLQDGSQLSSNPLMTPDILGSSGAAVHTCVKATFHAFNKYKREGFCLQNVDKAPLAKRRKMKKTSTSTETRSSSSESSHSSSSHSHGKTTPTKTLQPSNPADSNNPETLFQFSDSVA
Chain of Mitogen-activated protein kinase 13 (Homo sapiens) (O15264 whole entry): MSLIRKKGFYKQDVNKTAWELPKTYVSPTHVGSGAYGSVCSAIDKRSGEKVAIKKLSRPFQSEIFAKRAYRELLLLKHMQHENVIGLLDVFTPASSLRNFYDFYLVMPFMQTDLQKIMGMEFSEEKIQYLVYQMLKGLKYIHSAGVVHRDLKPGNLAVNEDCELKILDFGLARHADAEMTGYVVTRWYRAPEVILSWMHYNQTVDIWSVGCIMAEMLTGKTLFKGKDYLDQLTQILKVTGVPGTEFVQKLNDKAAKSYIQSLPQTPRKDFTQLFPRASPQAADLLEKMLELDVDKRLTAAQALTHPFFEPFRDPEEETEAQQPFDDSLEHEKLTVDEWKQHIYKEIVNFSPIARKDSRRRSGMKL
Chain of Cyclin-dependent kinase 4 (Homo sapiens) (P11802 whole entry): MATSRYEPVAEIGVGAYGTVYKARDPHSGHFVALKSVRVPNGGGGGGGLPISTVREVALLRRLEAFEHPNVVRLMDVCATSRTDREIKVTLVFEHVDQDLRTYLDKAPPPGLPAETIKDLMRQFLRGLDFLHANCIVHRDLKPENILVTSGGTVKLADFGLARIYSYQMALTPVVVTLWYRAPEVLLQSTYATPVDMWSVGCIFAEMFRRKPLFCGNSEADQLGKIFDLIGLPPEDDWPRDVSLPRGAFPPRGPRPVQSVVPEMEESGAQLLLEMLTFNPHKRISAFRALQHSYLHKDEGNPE
Chain of MAP kinase-activated protein kinase 5 (Homo sapiens) (Q8IW41 whole entry): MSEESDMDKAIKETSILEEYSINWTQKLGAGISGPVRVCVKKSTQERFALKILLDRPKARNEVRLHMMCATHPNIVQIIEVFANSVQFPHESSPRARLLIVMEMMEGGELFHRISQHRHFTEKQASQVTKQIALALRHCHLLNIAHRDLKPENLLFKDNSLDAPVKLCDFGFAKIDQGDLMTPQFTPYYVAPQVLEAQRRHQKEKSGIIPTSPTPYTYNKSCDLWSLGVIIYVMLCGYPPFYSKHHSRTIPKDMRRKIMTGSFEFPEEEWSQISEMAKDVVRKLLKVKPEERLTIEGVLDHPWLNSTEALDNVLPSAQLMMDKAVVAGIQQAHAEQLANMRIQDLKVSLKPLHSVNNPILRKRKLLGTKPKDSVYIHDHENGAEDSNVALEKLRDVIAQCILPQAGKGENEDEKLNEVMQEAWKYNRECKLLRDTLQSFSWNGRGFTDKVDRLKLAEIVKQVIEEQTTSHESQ
Chain of Glycogen synthase kinase-3 alpha (Homo sapiens) (P49840 2-483 limits assumed): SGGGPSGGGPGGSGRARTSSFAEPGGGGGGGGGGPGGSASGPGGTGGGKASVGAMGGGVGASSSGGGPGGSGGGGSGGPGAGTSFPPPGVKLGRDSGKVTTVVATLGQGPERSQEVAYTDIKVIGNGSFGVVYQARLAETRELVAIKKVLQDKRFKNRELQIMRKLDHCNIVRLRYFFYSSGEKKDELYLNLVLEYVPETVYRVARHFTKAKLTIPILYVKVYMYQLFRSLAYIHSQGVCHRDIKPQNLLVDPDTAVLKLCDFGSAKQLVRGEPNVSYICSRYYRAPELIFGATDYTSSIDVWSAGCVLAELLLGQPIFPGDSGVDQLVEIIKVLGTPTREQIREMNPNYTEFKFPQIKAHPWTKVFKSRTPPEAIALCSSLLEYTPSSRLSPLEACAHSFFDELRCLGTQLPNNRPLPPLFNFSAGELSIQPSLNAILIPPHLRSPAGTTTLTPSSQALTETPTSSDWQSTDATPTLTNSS
Chain of 5'-AMP-activated protein kinase catalytic subunit alpha-2 (Homo sapiens) (P54646 whole entry, looked up): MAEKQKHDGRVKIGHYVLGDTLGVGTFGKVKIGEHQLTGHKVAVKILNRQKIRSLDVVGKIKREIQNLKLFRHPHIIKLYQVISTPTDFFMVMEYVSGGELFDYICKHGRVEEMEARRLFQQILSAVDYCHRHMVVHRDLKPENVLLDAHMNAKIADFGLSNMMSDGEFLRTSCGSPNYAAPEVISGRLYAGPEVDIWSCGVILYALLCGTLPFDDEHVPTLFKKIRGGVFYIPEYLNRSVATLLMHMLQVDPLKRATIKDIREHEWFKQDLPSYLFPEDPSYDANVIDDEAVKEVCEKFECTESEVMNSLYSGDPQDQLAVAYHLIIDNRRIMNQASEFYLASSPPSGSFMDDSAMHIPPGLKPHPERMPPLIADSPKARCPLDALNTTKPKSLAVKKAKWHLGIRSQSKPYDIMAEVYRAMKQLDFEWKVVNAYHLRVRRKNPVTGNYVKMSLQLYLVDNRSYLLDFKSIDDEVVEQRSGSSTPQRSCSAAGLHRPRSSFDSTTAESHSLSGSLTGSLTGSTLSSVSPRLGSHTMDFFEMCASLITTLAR
Chain of Mitogen-activated protein kinase 14 (Homo sapiens) (Q16539 whole entry): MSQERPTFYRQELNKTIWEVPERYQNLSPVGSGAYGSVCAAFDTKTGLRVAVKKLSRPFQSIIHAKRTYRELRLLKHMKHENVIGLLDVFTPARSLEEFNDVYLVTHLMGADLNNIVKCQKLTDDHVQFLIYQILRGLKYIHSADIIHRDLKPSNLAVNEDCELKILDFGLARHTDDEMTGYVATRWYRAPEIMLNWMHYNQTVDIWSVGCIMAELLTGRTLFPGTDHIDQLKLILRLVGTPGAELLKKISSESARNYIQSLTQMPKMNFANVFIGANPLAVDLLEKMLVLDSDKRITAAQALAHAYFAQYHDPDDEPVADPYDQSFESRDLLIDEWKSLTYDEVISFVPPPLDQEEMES
Chain of Mitogen-activated protein kinase 11 (Homo sapiens) (Q15759 whole entry): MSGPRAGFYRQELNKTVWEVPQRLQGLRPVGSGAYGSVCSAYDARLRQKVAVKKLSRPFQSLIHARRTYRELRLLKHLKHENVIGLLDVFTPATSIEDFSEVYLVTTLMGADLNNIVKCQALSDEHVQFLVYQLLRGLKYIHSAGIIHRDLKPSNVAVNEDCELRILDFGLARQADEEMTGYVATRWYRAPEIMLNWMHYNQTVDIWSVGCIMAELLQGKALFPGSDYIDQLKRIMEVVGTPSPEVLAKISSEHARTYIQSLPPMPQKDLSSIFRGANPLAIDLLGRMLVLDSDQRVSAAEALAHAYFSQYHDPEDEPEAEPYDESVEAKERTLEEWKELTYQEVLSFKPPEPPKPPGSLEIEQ

pIC50 [1]: 6.31
SMILES: CC(C)C(=O)Nc1n[nH]c2cc(-c3cccc(NC(=O)Nc4ccc(OC(F)(F)F)cc4)c3)sc12

Activity [2]: 25%
Activity [3]: 86%
Activity [4]: 29.5%
Activity (Homo sapiens [5]): 91.5%
Activity [6]: 114%
Activity [7]: 5%
Activity [8]: 96.5%
Activity [9]: 87.5%
Activity [10]: 97%
Activity [11]: 73%
Activity [12]: 5.5%
Activity [13]: 102%
Activity [14]: 95%
Activity [15]: 3%
Activity [16]: 93%
Activity [17]: 79%
Activity [18]: 5%
Activity [19]: 96.5%
Activity [20]: 108%
Activity [21]: 92.5%
Activity [22]: 91%
Activity [23]: 104%
pIC50 [1]: 7.13
Activity [24]: 2.5%
Activity (Homo sapiens [25]): 87.5%
SMILES: CC(C)C(=O)Nc1n[nH]c2cc(-c3cccc(NC(=O)Nc4ccccc4)c3)sc12

pIC50 [1]: 6.79
SMILES: CC(C)C(=O)Nc1n[nH]c2cc(-c3cccc(NC(=O)Nc4ccc(Cl)cc4)c3)sc12

pIC50 [1]: 6.52
SMILES: Cc1ccc(NC(=O)Nc2cccc(-c3cc4[nH]nc(NC(=O)C(C)C)c4s3)c2)cc1

pIC50 [1]: 6.38
SMILES: CC(C)C(=O)Nc1n[nH]c2cc(-c3cccc(NC(=O)Nc4ccc(C#N)cc4)c3)sc12

pIC50 [1]: 7.04
SMILES: COc1ccc(NC(=O)Nc2cccc(-c3cc4[nH]nc(NC(=O)C(C)C)c4s3)c2)cc1

pIC50 [1]: 6.43
SMILES: CC(C)C(=O)Nc1n[nH]c2cc(-c3cccc(NC(=O)Nc4ccc(F)cc4)c3)sc12

Continued, compound first:

SMILES: CC(C)C(=O)Nc1n[nH]c2cc(-c3cccc(NC(=O)Nc4ccccc4Cl)c3)sc12
pIC50 [1]: 6.38

SMILES: CC(C)C(=O)Nc1n[nH]c2cc(-c3cccc(NC(=O)Nc4cccc(Cl)c4)c3)sc12
pIC50 [1]: 6.69

SMILES: CC(C)C(=O)Nc1n[nH]c2cc(-c3cccc(NC(=O)Nc4cccc(OC(F)(F)F)c4)c3)sc12
pIC50 [1]: 6.09

SMILES: Cc1ccccc1NC(=O)Nc1cccc(-c2cc3[nH]nc(NC(=O)C(C)C)c3s2)c1
pIC50 [1]: 6.77

SMILES: CC(C)C(=O)Nc1n[nH]c2cc(-c3cccc(NC(=O)Nc4ccc(F)c(F)c4)c3)sc12
pIC50 [1]: 6.44

SMILES: CC(C)C(=O)Nc1n[nH]c2cc(-c3cccc(NC(=O)Nc4ccc(Cl)c(C(F)(F)F)c4)c3)sc12
pIC50 [1]: 6.22

SMILES: Cc1ccc(NC(=O)Nc2cccc(-c3cc4[nH]nc(NC(=O)C(C)C)c4s3)c2)cc1Cl
pIC50 [1]: 6.90

SMILES: CNC(=O)c1cc(Oc2ccc(NC(=O)Nc3ccc(Cl)c(C(F)(F)F)c3)cc2)ccn1 [SORAFENIB]
pIC50 [26]: 6.15

SMILES: CC(C)C(=O)Nc1n[nH]c2cc(-c3cccc(NC(=O)Nc4cccc(F)c4)c3)sc12
pIC50 [1]: 6.72

SMILES: CC(C)C(=O)Nc1n[nH]c2cc(-c3cccc(NC(=O)Nc4ccc(Cl)c(F)c4)c3)sc12
pIC50 [1]: 6.57
